pIC50: −log10 of the molar value. Activity calls are given as the source filed them. No cut-off for these calls is given here.
What was measured:
NCI-H1792 [1] = test: Antiproliferative activity against human NCI-H1792 cells harboring heterozygous KRAS G12C mutant assessed as inhibition of cell growth incubated for 72 hrs by MTT assay; format: functional, cell-based; conditions: NCI-H1792, 72 h
SW1573 = test: Antiproliferative activity against human SW1573 cells harboring homozygous KRAS G12C mutant assessed as inhibition of cell growth incubated for 72 hrs by MTT assay; format: functional, cell-based; conditions: SW1573, 72 h
MIA PaCa-2 = test: Antiproliferative activity against human MIA PaCa-2 cells harboring homozygous KRAS G12C mutant assessed as inhibition of cell growth incubated for 72 hrs by MTT assay; format: functional, cell-based; conditions: MIA PaCa-2, 72 h
NCI-H358 = test: Antiproliferative activity against human NCI-H358 cells harboring heterozygous KRAS G12C mutant assessed as inhibition of cell growth incubated for 72 hrs by MTT assay; format: functional, cell-based; conditions: NCI-H358, 72 h
A549 = test: Antiproliferative activity against human A549 cells harboring homozygous KRAS G12S mutant assessed as inhibition of cell growth incubated for 72 hrs by MTT assay; format: functional, cell-based; conditions: A549, 72 h
SW480 = test: Antiproliferative activity against human SW480 cells harboring homozygous KRAS G12V mutant assessed as inhibition of cell growth incubated for 72 hrs by MTT assay; format: functional, cell-based; conditions: SW480, 72 h
PANC-1 = test: Antiproliferative activity against human PANC-1 cells harboring heterozygous KRAS G12D mutant assessed as inhibition of cell growth incubated for 72 hrs by MTT assay; format: functional, cell-based; conditions: PANC-1, 72 h
LCLC-103H cell line [2] = test: Antiproliferative activity against human LCLC-103H cells harboring wild type KRAS assessed as inhibition of cell growth incubated for 72 hrs by MTT assay; format: functional, cell-based
BXPC-3 = test: Antiproliferative activity against human BXPC-3 cells harboring wild type KRAS assessed as inhibition of cell growth incubated for 72 hrs by MTT assay; format: functional, cell-based; conditions: BXPC-3, 72 h
[3] = Antiproliferative activity against human HCA-7 cells harboring wild type KRAS assessed as inhibition of cell growth incubated for 72 hrs by MTT assay; format: functional, cell-based, HCA7; conditions: HCA-7, 72 h
[4] = Cytotoxicity against human MRC5 cells assessed as inhibition of cell growth incubated for 72 hrs by MTT assay; format: toxicity, cell-based
[5] = Cytotoxicity against HUVEC cells immortalized with TERT assessed as inhibition of cell growth incubated for 72 hrs by MTT assay; format: toxicity, cell-based; conditions: human
[6] = Cytotoxicity against human CCD-986Sk cells assessed as inhibition of cell growth incubated for 72 hrs by MTT assay; format: toxicity, cell-based
[7] = Cmax in NOD-SCID mouse at 15 mg/kg, ip administered as single dose and measured upto 48 hrs by HPLC/MS analysis; format: ADME, organism-based; design: time < 48 hrs, dose 15 mg/kg, route ip; conditions: in vivo
[8] = Tmax in NOD-SCID mouse at 15 mg/kg, ip administered as single dose and measured upto 48 hrs by HPLC/MS analysis; format: ADME, organism-based; conditions: in vivo
[9] = Half life in NOD-SCID mouse at 15 mg/kg, ip administered as single dose and measured upto 48 hrs by HPLC/MS analysis; format: ADME, organism-based; conditions: in vivo
[10] = AUCt in NOD-SCID mouse at 15 mg/kg, ip administered as single dose and measured upto 48 hrs by HPLC/MS analysis; format: ADME, organism-based; design: dose 15 mg/kg, time < 48 hrs, route ip; conditions: in vivo
[11] = Volume of distribution in NOD-SCID mouse at 15 mg/kg, ip administered as single dose and measured upto 48 hrs by HPLC/MS analysis; format: ADME, organism-based; conditions: in vivo
[12] = Clearance in NOD-SCID mouse at 15 mg/kg, ip administered as single dose and measured upto 48 hrs by HPLC/MS analysis; format: ADME, organism-based; conditions: in vivo
[13] = test system: GTPase KRas (Homo sapiens), P01116 [G12C]; test: Binding affinity to Cys12 residue of GDP bound human KRAS-4B G12C mutant (1 to 169 residues) expressed in Escherichia coli BL21 Rosetta cells at 150 to 500 uM measured after 96 hrs by 1H-15N HSQC NMR spectral analysis; conditions: dose 150-500 µM
[14] = test system: GTPase KRas (Homo sapiens), P01116 [G12C]; test: Binding affinity to Cys51 residue of GDP bound human KRAS-4B G12C mutant (1 to 169 residues) expressed in Escherichia coli BL21 Rosetta cells at 150 to 500 uM measured after 96 hrs by 1H-15N HSQC NMR spectral analysis; conditions: dose 150-500 µM
[15] = test system: GTPase KRas (Homo sapiens), P01116 [G12C]; test: Binding affinity to Cys80 residue of GDP bound human KRAS-4B G12C mutant (1 to 169 residues) expressed in Escherichia coli BL21 Rosetta cells at 150 to 500 uM measured after 96 hrs by 1H-15N HSQC NMR spectral analysis; conditions: dose 150-500 µM
[16] = test system: GTPase KRas (Homo sapiens), P01116 [G12C]; test: Binding affinity to Cys118 residue of GDP bound human KRAS-4B G12C mutant (1 to 169 residues) expressed in Escherichia coli BL21 Rosetta cells at 150 to 500 uM measured after 96 hrs by 1H-15N HSQC NMR spectral analysis; conditions: dose 150-500 µM
[17] = test system: GTPase KRas (Homo sapiens), P01116 [G12C]; test: Covalent binding affinity to GDP-bound human KRAS-4B G12C mutant (1 to 169 residues) expressed in Escherichia coli BL21 Rosetta cells at 200 uM measured after 4 hrs by Ellman's assay
[18] = test system: GTPase KRas (Homo sapiens), P01116 [G12C]; test: Covalent binding affinity to GDP-bound human KRAS-4B G12C mutant (1 to 169 residues) expressed in Escherichia coli BL21 Rosetta cells at 200 uM measured after 1 hr by Ellman's assay
[19] = test system: GTPase KRas (Homo sapiens), P01116 [G12C]; test: Covalent binding affinity to GDP-bound human KRAS-4B G12C mutant (1 to 169 residues) expressed in Escherichia coli BL21 Rosetta cells assessed as reduction in free Cys residues at 200 uM measured after 1 hr by Ellman's assay
[20] = test system: GTPase KRas (Homo sapiens), P01116 [G12C]; test: Covalent binding affinity to GDP-bound human KRAS-4B G12C mutant (1 to 169 residues) expressed in Escherichia coli BL21 Rosetta cells assessed as labelling on Cys12 residue by intact LCMS analysis
[21] = (§1) Toxicity in immunodeficient NOD-SCID mouse xenografted with human NCI-H1792 cells harboring KRAS G12C mutant assessed as body weight at 5 to 30 mg/kg, ip administered for 5 times at 5 mg/kg in first week followed by administration at 20 mg/kg 5 times in second week and further administered 30 mg/kg 3 times in third week measured 17 days post treatment initiation and 35 days post tumor transplantation (reference value: 6.6 g); format: organism-based; conditions: in vivo, 408 h, dose 5-30 mg/kg, time 17 day
[22] = as §1, with “measured 20” for “measured 17”, “and 38” for “and 35”; format: organism-based; conditions: in vivo, 480 h, dose 5-30 mg/kg, time 20 day
[23] = as §1, with “LCLC-103H” for “NCI-H1792”, “harboring wild type” for “harboring”, “KRAS” for “KRAS G12C mutant”, “2.6” for “6.6”; format: organism-based; conditions: in vivo, 408 h, dose 5-30 mg/kg, time 17 day
LCLC-103H cell line [24] = test: Antitumor activity against human LCLC-103H cells harboring wild type KRAS xenografted in immunodeficient NOD-SCID mouse assessed as tumor volume at 5 to 30 mg/kg, ip administered for 5 times at 5 mg/kg in first week followed by administration at 20 mg/kg 5 times in second week and further administered 30 mg/kg 3 times in third week measured 17 days post treatment initiation and 35 days post tumor transplantation by digital caliper based analysis; format: functional; conditions: dose 5-30 mg/kg, time 17 day
NCI-H1792 [25] = test: Antitumor activity against human NCI-H1792 cells harboring KRAS G12C mutant xenografted in immunodeficient NOD-SCID mouse assessed as reduction in tumor growth at 5 to 30 mg/kg, ip administered for 5 times at 5 mg/kg in first week followed by administration at 20 mg/kg 5 times in second week and further administered 30 mg/kg 3 times in third week measured 17 days post treatment initiation and 35 days post tumor transplantation by digital caliper based analysis relative to control; format: functional; design: scale not given: the % may be the effect or the level left; conditions: dose 5-30 mg/kg, time 17 day
NCI-H1792 [26] = test: Antiproliferative activity against human NCI-H1792 cells harboring KRAS G12C mutant assessed as cell viability at 25 uM incubated for 72 hrs by MTT assay relative to control; format: functional; conditions: read-out: Activity
NCI-H1792 [27] = test: Antiproliferative activity against human NCI-H1792 cells harboring KRAS G12C mutant assessed as reduction in cell viability at 2.5 uM incubated for 72 hrs by MTT assay; format: functional, cell-based
[28] = test system: GTPase KRas (Homo sapiens), P01116 [G12C]; test: Covalent binding affinity to GDP-bound human KRAS-4B G12C mutant (1 to 169 residues) expressed in Escherichia coli BL21 Rosetta cells at 200 uM measured after 15 mins by Ellman's assay
Homo sapiens [29] = organism: Homo sapiens; test: Inhibition of GDP-bound human KRAS 149stop G12C mutant expressed in Escherichia coli BL21 Rosetta cells assessed as inhibition of EDTA mediated nucleotide exchange at 250 uM measured after 24 hrs by fluorescence based analysis
Homo sapiens [30] = organism: Homo sapiens; test: Inhibition of GDP-bound human KRAS 149stop G12C mutant expressed in Escherichia coli BL21 Rosetta cells assessed as inhibition of SOS1 mediated nucleotide exchange at 250 uM measured after 24 hrs by fluorescence based analysis
[31] = test system: GTPase KRas (Homo sapiens), P01116 [G12C]; test: Reversible binding affinity to GDP-bound human KRAS-4B G12C mutant (1 to 169 residues) expressed in Escherichia coli BL21 Rosetta cells by intact LCMS analysis

Row | pIC50 (NCI-H1792 [1]) | pIC50 (SW1573) | pIC50 (MIA PaCa-2) | pIC50 (NCI-H358) | pIC50 (A549) | pIC50 (SW480) | pIC50 (PANC-1) | pIC50 (BXPC-3) | Cmax [7] | Tmax [8] | half-life [9] | AUC(0-t) at 48 h [10] | Vd [11] | CL/F [12] | Activity [13] | SMILES | pIC50 (LCLC-103H cell line [2]) | pIC50 [3] | IC50 at 72 h [4] | IC50 at 72 h [5] | IC50 at 72 h [6] | further results
1 | 4.96 | 4.63 | 4.86 | 4.77 | 4.35 | 4.83 | 4.42 | 4.88 | 337 ng/mL | 0.25 h | 4.4 h | 169 ng·h/mL | 12096 mL | 31.6 mL/min | Active | O=C1Nc2cc(Cl)cc(Cl)c2C1=O | 4.52 | 5.01 | 47.9 µM | 24.4 µM | 42.7 µM | Activity [14]: inactive; Activity [15]: inactive; Activity [16]: inactive; Activity [17]: 50%; Activity [18]: Active; Activity [19]: Active; Activity [20]: Active; Activity [21]: 6.9 g; Activity [22]: 9.1 g; Activity [23]: 2.8 g; Activity (LCLC-103H cell line [24]): 13.3 mm3; Activity (NCI-H1792 [25]): 35.8%; viability at 25 µM (NCI-H1792 [26]): < 50%; Activity (NCI-H1792 [27]): Active
2 | 4.94 | 4.62 | 4.61 | 4.91 | 4.36 | 4.35 | 4.56 | 4.33 | 27400 ng/mL | 0.25 h | 4 h | 28300 ng·h/mL | 63.6 mL | 0.183 mL/min | Active | O=Cc1c(O)ccc2ccccc12 | 4.49 | 4.58 | 25 µM | 10.8 µM | 66.2 µM | Activity [14]: inactive; Activity [15]: inactive; Activity [16]: inactive; Activity [28]: Active; Activity [17]: 100%; Activity [19]: Active; inhibition (Homo sapiens [29]): Active; inhibition (Homo sapiens [30]): Active; Activity [21]: 5.2 g; Activity [22]: 4.9 g; Activity [23]: 0 g; Activity (LCLC-103H cell line [24]): 9.2 mm3; Activity (NCI-H1792 [25]): 32.5%; Activity [31]: Active; viability at 25 µM (NCI-H1792 [26]): < 50%; Activity (NCI-H1792 [27]): Active

Source: ChEMBL document CHEMBL5335777 (Eur J Med Chem, 2023)
